Data taken from ChEMBL document CHEMBL1201862, “PubChem BioAssay data set” (2004).
Active and inactive are the calls of the source.

Columns and labels:
[1] = molecular target: T1, Short transient receptor potential channel 4 (Mus musculus, UniProt Q9QUQ5); test: block of DAMGO-driven TRPC4 calcium entry – cell-based, HEK293 TRPC4/mu-opioid, Fluo-4 calcium, dose response (AID 434942); format: functional;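 also: potency of inhibitors blocking the TRPC4 calcium response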
T1 sequence (Q9QUQ5 whole entry): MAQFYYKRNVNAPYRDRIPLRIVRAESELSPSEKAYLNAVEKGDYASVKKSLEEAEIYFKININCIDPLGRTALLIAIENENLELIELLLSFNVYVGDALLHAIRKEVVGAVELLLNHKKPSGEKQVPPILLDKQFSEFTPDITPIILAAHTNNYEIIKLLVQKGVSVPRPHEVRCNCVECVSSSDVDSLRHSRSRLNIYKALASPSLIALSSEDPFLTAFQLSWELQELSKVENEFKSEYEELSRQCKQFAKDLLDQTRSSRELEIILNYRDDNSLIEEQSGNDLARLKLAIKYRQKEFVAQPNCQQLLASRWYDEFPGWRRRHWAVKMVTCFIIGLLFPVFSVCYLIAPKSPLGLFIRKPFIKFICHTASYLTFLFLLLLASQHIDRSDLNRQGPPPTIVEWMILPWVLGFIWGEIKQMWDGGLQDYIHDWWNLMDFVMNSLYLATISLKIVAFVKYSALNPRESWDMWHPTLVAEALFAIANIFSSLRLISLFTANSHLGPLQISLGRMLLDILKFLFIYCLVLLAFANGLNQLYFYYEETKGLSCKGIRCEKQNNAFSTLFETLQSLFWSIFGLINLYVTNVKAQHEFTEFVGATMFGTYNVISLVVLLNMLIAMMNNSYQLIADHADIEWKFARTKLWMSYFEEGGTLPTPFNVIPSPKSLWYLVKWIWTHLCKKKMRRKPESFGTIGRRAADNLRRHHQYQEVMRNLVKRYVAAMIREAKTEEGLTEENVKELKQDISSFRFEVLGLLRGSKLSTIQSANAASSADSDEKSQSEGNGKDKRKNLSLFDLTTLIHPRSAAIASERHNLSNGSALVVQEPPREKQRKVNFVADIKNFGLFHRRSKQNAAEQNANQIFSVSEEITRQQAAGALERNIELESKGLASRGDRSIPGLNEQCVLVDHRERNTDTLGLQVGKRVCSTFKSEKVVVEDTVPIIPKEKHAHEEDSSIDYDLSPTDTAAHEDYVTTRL

[2] = molecular target: T2, DNA repair and recombination protein RAD54-like (Homo sapiens, UniProt Q92698); test: RAD54 Holliday junction migration blockers – biochemical, fluorescence, cherry-picked samples, dose series, confirmation (AID 651657); format: functional
T2 sequence (Q92698 whole entry): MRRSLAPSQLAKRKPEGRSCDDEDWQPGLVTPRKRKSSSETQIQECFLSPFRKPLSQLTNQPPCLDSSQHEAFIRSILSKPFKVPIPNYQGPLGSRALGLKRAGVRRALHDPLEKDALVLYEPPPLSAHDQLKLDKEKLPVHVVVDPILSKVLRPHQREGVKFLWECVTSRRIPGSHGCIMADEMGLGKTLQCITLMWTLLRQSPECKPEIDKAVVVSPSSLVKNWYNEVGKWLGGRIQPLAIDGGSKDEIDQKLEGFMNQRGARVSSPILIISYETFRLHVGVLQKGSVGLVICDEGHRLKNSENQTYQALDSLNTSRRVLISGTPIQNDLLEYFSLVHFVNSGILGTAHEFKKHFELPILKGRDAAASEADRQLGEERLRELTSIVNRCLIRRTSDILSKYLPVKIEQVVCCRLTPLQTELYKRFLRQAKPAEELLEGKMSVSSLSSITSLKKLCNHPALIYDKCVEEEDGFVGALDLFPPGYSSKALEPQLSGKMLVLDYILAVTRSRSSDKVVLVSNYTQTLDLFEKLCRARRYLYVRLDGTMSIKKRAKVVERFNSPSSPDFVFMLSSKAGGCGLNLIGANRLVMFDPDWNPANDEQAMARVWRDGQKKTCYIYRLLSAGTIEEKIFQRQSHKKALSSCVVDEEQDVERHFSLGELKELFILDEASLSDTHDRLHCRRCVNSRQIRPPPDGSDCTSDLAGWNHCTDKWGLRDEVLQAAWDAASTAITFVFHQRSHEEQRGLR

[3] = molecular target: T3, Heat shock factor protein 1 (Mus musculus, UniProt P38532); test: enhancement of HSF1-driven luciferase signal – cell-based, NIH3T3, luminescence, dose retest, confirmation (AID 435004); format: functional;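 also: stress induced by proteasome inhibitor MG132 added 30 min after compound; luciferase reporter driven by HSF1 response element in NIH3T3 cells; actives raise luminescence as potentiators of the MG132 stress response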
T3 sequence (P38532 whole entry): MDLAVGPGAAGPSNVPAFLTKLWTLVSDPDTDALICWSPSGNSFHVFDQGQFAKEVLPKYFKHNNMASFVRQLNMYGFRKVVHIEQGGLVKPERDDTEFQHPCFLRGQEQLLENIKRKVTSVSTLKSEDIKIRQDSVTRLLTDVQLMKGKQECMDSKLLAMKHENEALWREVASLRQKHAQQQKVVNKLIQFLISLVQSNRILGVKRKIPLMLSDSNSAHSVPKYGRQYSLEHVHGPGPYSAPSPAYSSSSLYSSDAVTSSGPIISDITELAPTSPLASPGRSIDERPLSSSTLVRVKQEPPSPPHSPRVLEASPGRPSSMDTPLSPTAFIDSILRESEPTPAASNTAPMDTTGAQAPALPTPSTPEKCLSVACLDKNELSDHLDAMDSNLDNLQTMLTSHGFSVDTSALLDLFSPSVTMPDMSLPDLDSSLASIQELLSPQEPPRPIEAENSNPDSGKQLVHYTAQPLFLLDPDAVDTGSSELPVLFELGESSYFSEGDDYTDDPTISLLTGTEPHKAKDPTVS

[4] = molecular target: T4, Corticotropin-releasing factor receptor 2/Corticotropin-releasing factor-binding protein (Homo sapiens, UniProt P24387+Q13324); test: activators of CRF receptor 2 with binding protein – uHTS hits, confirmation (AID 602473); format: functional; details: read-out: EC50_Mean
T4 sequence (Q13324 whole entry): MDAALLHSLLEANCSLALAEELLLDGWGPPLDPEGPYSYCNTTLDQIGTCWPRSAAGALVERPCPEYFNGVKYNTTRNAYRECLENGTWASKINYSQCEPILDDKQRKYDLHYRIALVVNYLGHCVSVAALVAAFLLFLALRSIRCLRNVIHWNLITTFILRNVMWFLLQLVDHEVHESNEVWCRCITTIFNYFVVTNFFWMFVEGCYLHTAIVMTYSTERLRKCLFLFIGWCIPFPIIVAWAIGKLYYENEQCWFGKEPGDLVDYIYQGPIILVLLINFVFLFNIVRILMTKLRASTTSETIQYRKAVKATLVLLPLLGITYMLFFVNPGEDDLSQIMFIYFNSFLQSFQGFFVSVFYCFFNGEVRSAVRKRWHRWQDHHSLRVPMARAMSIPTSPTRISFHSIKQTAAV
T4 sequence (P24387 whole entry): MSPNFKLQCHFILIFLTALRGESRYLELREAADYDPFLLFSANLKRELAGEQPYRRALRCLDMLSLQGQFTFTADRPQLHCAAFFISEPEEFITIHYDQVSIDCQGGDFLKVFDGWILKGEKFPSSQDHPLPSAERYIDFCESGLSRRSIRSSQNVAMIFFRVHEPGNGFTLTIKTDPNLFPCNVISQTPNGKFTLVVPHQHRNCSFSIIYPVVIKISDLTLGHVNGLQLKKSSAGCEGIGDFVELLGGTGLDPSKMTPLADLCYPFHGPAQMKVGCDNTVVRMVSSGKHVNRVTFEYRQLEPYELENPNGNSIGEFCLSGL

[5] = molecular target: T4, Corticotropin-releasing factor receptor 2/Corticotropin-releasing factor-binding protein; test: Dose Response confirmation of uHTS hits for small molecule antagonists of the CRF-binding protein and CRF-R2 receptor complex.; format: functional; details: read-out: IC50_Mean
[6] = viability loss in HEK293T cells – cell-based, cherry-picks, cytotoxicity control for HIV Vif inhibitor project, dose response (AID 652208); format: functional
Albumin = Albumin (Bos taurus, UniProt P02769); test: Counterscreen for inhibitors of T-cell receptor (TCR)-CD3 interaction: Fluorescence-based biochemical high throughput dose response assay to identify inhibitors of T-cell receptor (TCR)-CD3 interaction using a TAMRA-labeled BSA probe.; format: functional
[7] = molecular target: T5, Histone-lysine N-methyltransferase NSD2 (Homo sapiens, UniProt O96028); format: biochemical
T5 sequence (O96028 whole entry): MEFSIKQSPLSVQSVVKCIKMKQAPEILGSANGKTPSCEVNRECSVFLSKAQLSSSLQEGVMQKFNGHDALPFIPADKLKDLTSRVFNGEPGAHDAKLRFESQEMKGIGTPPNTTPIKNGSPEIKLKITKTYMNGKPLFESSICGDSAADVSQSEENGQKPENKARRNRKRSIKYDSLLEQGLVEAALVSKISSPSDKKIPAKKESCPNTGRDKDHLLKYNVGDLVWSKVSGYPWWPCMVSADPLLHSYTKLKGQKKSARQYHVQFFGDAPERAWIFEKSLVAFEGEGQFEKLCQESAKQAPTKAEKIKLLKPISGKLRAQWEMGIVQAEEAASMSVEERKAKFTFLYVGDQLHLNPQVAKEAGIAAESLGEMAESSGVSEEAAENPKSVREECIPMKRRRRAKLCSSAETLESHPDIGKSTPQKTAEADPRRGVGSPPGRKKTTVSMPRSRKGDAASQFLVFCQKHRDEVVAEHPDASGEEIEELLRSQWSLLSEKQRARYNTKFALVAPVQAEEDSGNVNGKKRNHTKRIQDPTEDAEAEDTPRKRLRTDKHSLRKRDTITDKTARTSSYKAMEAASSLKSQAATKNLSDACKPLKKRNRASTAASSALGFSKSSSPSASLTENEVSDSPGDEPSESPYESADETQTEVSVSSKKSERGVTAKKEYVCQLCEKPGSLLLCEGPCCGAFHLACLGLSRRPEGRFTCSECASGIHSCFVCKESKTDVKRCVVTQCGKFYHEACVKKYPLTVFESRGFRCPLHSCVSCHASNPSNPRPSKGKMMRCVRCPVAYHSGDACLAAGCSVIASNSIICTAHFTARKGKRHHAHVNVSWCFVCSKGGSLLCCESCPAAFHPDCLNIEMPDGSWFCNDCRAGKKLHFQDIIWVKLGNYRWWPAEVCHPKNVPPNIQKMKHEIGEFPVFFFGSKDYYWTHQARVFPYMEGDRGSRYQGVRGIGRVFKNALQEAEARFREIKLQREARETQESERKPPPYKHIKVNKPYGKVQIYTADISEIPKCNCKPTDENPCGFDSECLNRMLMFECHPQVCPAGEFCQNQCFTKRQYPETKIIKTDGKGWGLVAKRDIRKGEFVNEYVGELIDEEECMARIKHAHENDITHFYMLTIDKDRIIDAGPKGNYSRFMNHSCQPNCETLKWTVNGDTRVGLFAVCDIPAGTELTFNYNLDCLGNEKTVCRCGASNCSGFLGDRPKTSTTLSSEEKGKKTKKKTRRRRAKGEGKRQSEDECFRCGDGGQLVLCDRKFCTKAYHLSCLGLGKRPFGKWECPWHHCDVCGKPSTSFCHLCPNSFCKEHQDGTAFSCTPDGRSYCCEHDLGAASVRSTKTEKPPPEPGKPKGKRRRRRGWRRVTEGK

[8] = molecular target: T6, Rac GTPase-activating protein 1 (Homo sapiens, UniProt Q9H0H5); test: blockers of MgcRacGAP-driven Rac1 GTP hydrolysis – biochemical, ADP Hunter fluorescence, primary and confirmatory, confirmation (AID 624330); format: functional
T6 sequence (Q9H0H5 whole entry): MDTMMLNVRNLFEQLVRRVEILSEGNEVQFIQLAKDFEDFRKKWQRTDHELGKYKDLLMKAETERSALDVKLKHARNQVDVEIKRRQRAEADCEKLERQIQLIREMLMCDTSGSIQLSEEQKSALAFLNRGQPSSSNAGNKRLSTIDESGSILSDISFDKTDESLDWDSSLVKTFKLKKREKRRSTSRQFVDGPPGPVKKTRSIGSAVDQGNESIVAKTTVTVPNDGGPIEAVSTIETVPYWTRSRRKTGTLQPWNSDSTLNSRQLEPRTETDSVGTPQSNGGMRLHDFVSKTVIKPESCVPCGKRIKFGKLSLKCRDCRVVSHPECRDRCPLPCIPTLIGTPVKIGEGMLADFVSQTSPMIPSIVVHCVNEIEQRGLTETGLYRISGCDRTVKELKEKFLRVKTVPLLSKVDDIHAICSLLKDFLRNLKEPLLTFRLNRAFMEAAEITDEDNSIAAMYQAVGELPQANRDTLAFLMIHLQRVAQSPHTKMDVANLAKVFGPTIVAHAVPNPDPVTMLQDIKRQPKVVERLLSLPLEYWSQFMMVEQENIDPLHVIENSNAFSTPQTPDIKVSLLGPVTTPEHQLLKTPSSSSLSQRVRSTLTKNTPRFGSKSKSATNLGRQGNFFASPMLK

[9] = T. cruzi growth inhibition in host cells, dose response, cell-based, plate reader, dry powder, set 2 (AID 652275); format: functional

Sequence of Albumin (P02769 whole entry): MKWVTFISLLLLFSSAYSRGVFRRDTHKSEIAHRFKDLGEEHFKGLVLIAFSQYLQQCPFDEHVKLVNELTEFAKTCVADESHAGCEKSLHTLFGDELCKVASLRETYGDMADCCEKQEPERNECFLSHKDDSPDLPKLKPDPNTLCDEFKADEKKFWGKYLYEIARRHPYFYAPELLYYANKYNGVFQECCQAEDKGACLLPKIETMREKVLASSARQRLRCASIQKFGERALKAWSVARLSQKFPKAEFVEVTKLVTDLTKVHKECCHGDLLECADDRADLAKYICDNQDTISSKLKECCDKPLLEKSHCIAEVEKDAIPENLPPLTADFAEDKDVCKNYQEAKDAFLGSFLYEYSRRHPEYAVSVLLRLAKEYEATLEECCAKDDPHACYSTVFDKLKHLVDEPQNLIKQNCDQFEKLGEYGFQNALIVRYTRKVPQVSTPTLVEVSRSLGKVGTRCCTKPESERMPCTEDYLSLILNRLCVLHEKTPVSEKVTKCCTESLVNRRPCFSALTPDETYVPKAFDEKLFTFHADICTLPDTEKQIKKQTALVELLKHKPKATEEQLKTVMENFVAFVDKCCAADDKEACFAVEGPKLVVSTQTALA

With `Cc1ccc2nc(C)cc(Nc3ccc4c(c3)OCCO4)c2c1` the EC50 [1] was 2.99 µM (active) and the AC50 [2] was 37.2 µM (active).

With `CC(Cc1ccccc1)NCC(=O)Nc1cc(N(C)C)nc2ccccc12` (centres undefined) the AC50 [2] was 42.1 µM (active) and the EC50 [3] was > 260 µM (inactive).

With `Cc1ccc(-c2cc(C(=O)NCc3ccccn3)c3ccccc3n2)cc1C` the EC50 [4] was > 53 µM (inactive), the IC50 [5] was > 47.1 µM (inactive) and the AC50 [6] was 32.7 µM (active).

In the case of `O=C(COc1ccc(-n2cnnn2)cc1)Nc1cc(Cl)cc(Cl)c1`, the AC50 [6] is reported as 18.1 µM (active).

In the case of `CN(C)C=O.O=C(O)c1ccccc1NS(=O)(=O)c1ccc(N/N=C/c2ccc(O)c(O)c2)c([N+](=O)[O-])c1`, the IC50 (Albumin) is reported as > 94.1 µM (inactive), the AC50 [7] is reported as 1.71 µM (active) and the IC50 [8] is reported as 60.7 µM (active).

For `COC[C@H](C)N1C[C@H](C)[C@@H](CN(C)Cc2ccc(Cl)cc2)Oc2c(NC(=O)c3ccncc3)cccc2C1=O`, the AC50 [9] was 0.00139 µM (active).

For `COCC(=O)N1CCCCN2[C@@H](CO)[C@H](c3ccc(-c4cccc(C)c4)cc3)[C@@H]2C1`, the AC50 [9] was 1.42 µM (active).

In the case of `O=C(c1ccncc1)N1CCCCN2[C@@H](CO)[C@H](c3ccc(-c4ccccc4)cc3)[C@@H]2C1`, the AC50 [9] is reported as 4.5 µM (active).
